In brackets after ≈: the same amount, converted by molar mass. Like-named read-outs stand apart in the source and are kept apart here.
Experiments:
[1] = biological target: T1, His-tagged cytoplasmic domain of EGFR (Homo sapiens, UniProt P00533); test: Inhibition of Epidermal Growth Factor Receptor Kinase (EGF-R) using recombinant enzyme, RR-SRC peptide phosphorylation; type: biochemical
T1 construct: containing the EGFR cDNA encoding amino acids 645 - 1186 preceded by Met-Ala-(His)6; Met-Ala-(His)6 (N); made in house; host or cells: Sf9 insect cells, recombinant baculovirus vHcEGFR52
Experimental: The enzyme used in this assay is the His-tagged cytoplasmic domain of EGFR. […] Sf9 cells in 100 mm plates were infected at an moi of 10 pfu/cell and cells were harvested 48 h post infection. A cytoplasmic extract was prepared using 1% Triton X-100 and applied to Ni-NTA column. After washing the column with 20 mM imidazole, HcEGFR was eluted with 250 mM imidazole (in 50 mM Na2HPO4, pH 8.0, 300 mM NaCl). Fractions collected were dialyzed against 10 mM HEPES, pH 7.0, 50 mM NaCl, 10% glycerol, 1ug/mL antipain and leupeptin and 0. 1 mM Pefabloc SC. The protein was frozen in dry ice/methanol and stored -70°C.
For the enzyme reaction, 10 uL of each inhibitor (at various concentrations) were added to each well of a 96-well plate. To this was added 3 uL of enzyme (1: 10 dilution in 10mM HEPES, pH 7.4 for final conc. of 1:120). This was allowed to sit for 10 min on ice and was followed by the addition of 5 ul peptide (80 uM final conc.), 10ul of 4X Buffer (Table A), 0.25 uL ^33P-ATP and 12 uL H2O. The reaction was allowed to run for 90 min at room temperature and was followed by spotting the entire volume on to precut P81 filter papers. The filter discs were washed 2X with 0.5% phosphoric acid and radioactivity was measured using a liquid scintillation counter.

A2780DDP = test: Inhibition of Cancer Cell Growth (Sulforhodamine B); type: cell-based, Human; settings: 48 hours exposure; for IC50: Homo sapiens, read-out: Inhibition of Cancer Cell Growth as Measured by Cell Number (IC50) A2780DDP
Experimental: (§1) After 48 hours exposure to test compounds, cells were fixed with trichloroacetic acid, and stained with Sulforhodamine B. After washing with trichloroacetic acid, bound dye was solubilized in 10 mM Tris base and optical density was determined using plate reader. Under conditions of the assay the optical density is proportional to the number of cells in the well. […] The test procedure is described in details by Philip Skehan et. al. J.Natl. Canc. […]

A2780S = test: as above; type: cell-based, Human; settings: 48 hours exposure; for IC50: Homo sapiens, read-out: Inhibition of Cancer Cell Growth as Measured by Cell Number (IC50) A2780S
Experimental: as §1

A431 = test: as above; type: cell-based, Human; settings: for IC50: Homo sapiens, A-431, 48 hours exposure, read-out: Inhibition of Cancer Cell Growth as Measured by Cell Number (IC50) A431
Experimental: as §1

LOX = test: as above; type: cell-based, Human; settings: 48 hours exposure; for IC50: Homo sapiens, read-out: Inhibition of Cancer Cell Growth as Measured by Cell Number (IC50) LOX
Experimental: as §1

MCF7 = test: as above; type: cell-based, Human; settings: 48 hours exposure; for IC50: Homo sapiens, read-out: Inhibition of Cancer Cell Growth as Measured by Cell Number (IC50) MCF7
Experimental: as §1

SKBR3 = test: as above; type: cell-based, Human; settings: for IC50: Homo sapiens, SK-BR-3, 48 hours exposure, read-out: Inhibition of Cancer Cell Growth as Measured by Cell Number (IC50) SKBR3
Experimental: as §1

SW620 = test: as above; type: cell-based, Human; settings: for IC50: Homo sapiens, SW-620, 48 hours exposure, read-out: Inhibition of Cancer Cell Growth as Measured by Cell Number (IC50) SW620
Experimental: as §1

MB435 = test: as above; type: cell-based, Human; settings: 48 hours exposure; for IC50: Homo sapiens, read-out: Inhibition of Cancer Cell Growth as Measured by Cell Number (IC50) MB435
Experimental: as §1

[2] = recombinant enzyme, average of the number of tests, read-out: IC50

T1 sequence (P00533 669-1210): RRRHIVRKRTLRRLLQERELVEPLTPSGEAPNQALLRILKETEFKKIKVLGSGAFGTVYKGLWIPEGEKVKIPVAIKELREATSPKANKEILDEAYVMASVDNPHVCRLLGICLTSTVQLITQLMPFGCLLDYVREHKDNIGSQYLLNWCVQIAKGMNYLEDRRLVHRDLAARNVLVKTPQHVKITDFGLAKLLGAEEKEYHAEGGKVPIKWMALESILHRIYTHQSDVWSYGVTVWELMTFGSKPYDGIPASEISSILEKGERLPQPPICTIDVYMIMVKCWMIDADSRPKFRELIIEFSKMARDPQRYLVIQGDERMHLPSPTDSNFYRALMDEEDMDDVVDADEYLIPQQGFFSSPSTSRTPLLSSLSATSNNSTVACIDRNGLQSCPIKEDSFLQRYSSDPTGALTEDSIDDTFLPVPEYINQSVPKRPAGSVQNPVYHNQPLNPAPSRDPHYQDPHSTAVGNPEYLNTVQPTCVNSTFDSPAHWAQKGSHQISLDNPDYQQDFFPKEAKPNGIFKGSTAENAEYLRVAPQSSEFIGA

Compound | IC50 [1, 2] [pM] | IC50 (A2780DDP) [µg/mL] | IC50 (A2780S) [µg/mL] | IC50 (A431) [µg/mL] | IC50 (LOX) [µg/mL] | IC50 (MCF7) [µg/mL] | IC50 (SKBR3) [µg/mL] | IC50 (SW620) [µg/mL] | IC50 (MB435) [µg/mL] | IC50 [1] [pM] | Inhibition of Cancer Cell Growth as Measured by Cell Number (IC50) A2780DDP (A2780DDP) [µg/mL] | Inhibition of Cancer Cell Growth as Measured by Cell Number (IC50) A2780S (A2780S) [µg/mL] | Inhibition of Cancer Cell Growth as Measured by Cell Number (IC50) A431 (A431; 48 hours exposure) [µg/mL] | Inhibition of Cancer Cell Growth as Measured by Cell Number (IC50) LOX (LOX) [µg/mL] | Inhibition of Cancer Cell Growth as Measured by Cell Number (IC50) MB435 (MB435) [µg/mL] | Inhibition of Cancer Cell Growth as Measured by Cell Number (IC50) MCF7 (MCF7) [µg/mL] | Inhibition of Cancer Cell Growth as Measured by Cell Number (IC50) SKBR3 (SKBR3; 48 hours exposure) [µg/mL] | Inhibition of Cancer Cell Growth as Measured by Cell Number (IC50) SW620 (SW620; 48 hours exposure) [µg/mL]
O=C(/C=C/Cl)Nc1ccc2ncnc(Nc3cccc(Br)c3)c2c1 [Example 47, N-[4-[(3-Bromophenyl)amino]-6-quinazolinyl]-3(E)-chloro-2-propenamide] | 300 | 0.197 (≈ 0.488 µM) | 0.01 (≈ 0.0248 µM) | 0.023 (≈ 0.057 µM) | 0.0772 (≈ 0.191 µM) | 1.17 (≈ 2.9 µM) | 0.496 (≈ 1.23 µM) | 0.39 (≈ 0.966 µM) | – | – | – | – | – | – | – | – | – | –
O=c1c(Nc2ccc3ncnc(Nc4cccc(Br)c4)c3c2)c(N2CCOCC2)c1=O [Example 52, 3-[4-(3-Bromo-phenylamino)-quinazolin-6-ylamino]-4-morpholin-4-yl-cyclobut-3-ene-1,2-dione] | – | 41.1 (≈ 85.7 µM) | 27 (≈ 56.3 µM) | 8.42 (≈ 17.5 µM) | 7.6 (≈ 15.8 µM) | 53.1 (≈ 111 µM) | 38 (≈ 79.1 µM) | > 100 | 26.8 (≈ 55.8 µM) | – | – | – | – | – | – | – | – | –
CN1CCC=C(C(=O)Nc2ccc3ncnc(Nc4cccc(Br)c4)c3c2)C1 [Example 53] | – | 4.73 (≈ 10.8 µM) | 2.89 (≈ 6.59 µM) | 0.44 (≈ 1 µM) | 5.62 (≈ 12.8 µM) | 5.09 (≈ 11.6 µM) | – | – | 4.31 (≈ 9.83 µM) | 60000 | – | – | – | – | – | – | – | –
O=C(C=CCBr)Nc1ccc2ncnc(Nc3cccc(Br)c3)c2c1 [Example 65, 4-Bromo-but-2-enoic acid [4-(3-bromo-phenylamino)-quinazolin-6-yl]-amide] | – | 6.5 (≈ 14.1 µM) | 5.2 (≈ 11.3 µM) | 3.2 (≈ 6.92 µM) | 5.3 (≈ 11.5 µM) | 42 (≈ 90.9 µM) | 0.3 (≈ 0.649 µM) | 8.1 (≈ 17.5 µM) | 13 (≈ 28.1 µM) | – | – | – | – | – | – | – | – | –
CN(C)CC=CC(=O)Nc1ccc2ncnc(Nc3cccc(Br)c3)c2c1 [Example 66, 4-Dimethylamino-but-2-enoic acid [4-(3-bromo-phenylamino)-quinazolin-6-yl]-amide] | – | 5.1 (≈ 12 µM) | 3.9 (≈ 9.15 µM) | 0.007 (≈ 0.0164 µM) | 4.9 (≈ 11.5 µM) | 7.6 (≈ 17.8 µM) | < 0.01 | 5.1 (≈ 12 µM) | 5.4 (≈ 12.7 µM) | – | – | – | – | – | – | – | – | –
CSSC(C)C(=O)Nc1ccc2ncnc(Nc3cccc(Br)c3)c2c1 (centres unmarked) [Example 73, N-[4-(3-Bromo-phenylamino)-quinazolin-6-yl]-2-methyldisulfanyl-propionamide] | – | 3 (≈ 6.68 µM) | 1.77 (≈ 3.94 µM) | 1.07 (≈ 2.38 µM) | 3.1 (≈ 6.9 µM) | 5.04 (≈ 11.2 µM) | – | 3.65 (≈ 8.12 µM) | – | – | – | – | – | – | – | – | – | –
O=C(Nc1ccc2ncnc(Nc3cccc(Br)c3)c2c1)C1CO1 (centres unmarked) [Example 81, Oxirane-2-carboxylic acid [4-(3-bromo-phenylamino)-quinazolin-6-yl]-amide] | 700 | 0.311 (≈ 0.807 µM) | 0.257 (≈ 0.667 µM) | 0.34 (≈ 0.883 µM) | 0.386 (≈ 1 µM) | 1.03 (≈ 2.67 µM) | 0.306 (≈ 0.794 µM) | 0.584 (≈ 1.52 µM) | – | – | – | – | – | – | – | – | – | –
C=CS(=O)(=O)Nc1ccc2ncnc(Nc3cccc(Br)c3)c2c1 [Example 82, Ethenesulfonic acid[4-(3-bromo-phenylamino)-quinazolin-6-yl]-amide] | – | 0.112 (≈ 0.276 µM) | 0.0626 (≈ 0.154 µM) | 0.025 (≈ 0.0617 µM) | 0.382 (≈ 0.943 µM) | 0.81 (≈ 2 µM) | 0.269 (≈ 0.664 µM) | 0.53 (≈ 1.31 µM) | – | – | – | – | – | – | – | – | – | –
N-[4-(3-Bromo-phenylamino)-quinazolin-6-yl]-2-morpholin-4-ylmethyl-acrylamide [Example 63] | – | – | – | – | – | – | – | – | – | – | 4.0 | 0.8 | 0.6 | 3.9 | 4.5 | 17 | <0.01 | 5.5

— patent EP1000039B1 (Wyeth Holdings Corporation, priority 1997, dated 1999)
